Assay results: patent US9409952B2, “Peptide-compound cyclization method” (Chugai Seiyaku Kabushiki Kaisha, priority 2011, dated 2016)
Like-named read-outs stand apart in the source and are kept apart here. Starred links: 1 amine or outer side, 2 acyl side, 3 side chain; linkers in the order of their positions; H or OH if unused. Positions of bridges follow the written chain, without caps; N, C: chain ends. Non-standard residues stand in square brackets, D forms with d. Residues, ends and D or L forms follow the SMILES beside them. *: point of attachment. Cys(O)(CH2CO) = O=C([C@H](C[S+]([O-])CC(=O)[*:3])N[*:1])[*:2]; NMeF = CN[C@@H](Cc1ccccc1)C(=O)O; NMeI = CC[C@H](C)[C@H](NC)C(=O)O; NMeL = CN[C@@H](CC(C)C)C(=O)O; NMeV = CN[C@H](C(=O)O)C(C)C; NMeA = CN[C@@H](C)C(=O)O; Piperidide = C1CCN(*)CC1; NPrGly = CCCNCC(=O)O; Sar = CNCC(=O)O; tBu = CC(C)(C)*

Key:
[1] = Stability of aminoacylated pdCpA in buffers and on storage (LC-MS); type: physicochemical; settings: for % by LC-MS during StBu deprotection: 250 μM Compound 2n-A, 50 mM Tris-HCl pH 7, 10 mM DTT
Description: The side chain StBu of pdCpA-Cys was deprotected using the precursor Compound 2n-A, and the following experiment was carried out to examine stability of the deprotected Compound 2e-A. The side chain was deprotected at room temperature under the conditions of 250 μM of Compound 2n-A, 50 mM Tris-HCl buffer, pH 7, and 10 mM DTT, and the time course of the deprotection was observed by LC-MS (SQD). The intended Compound 2e-A was not observed, and pdCpA resulting from hydrolysis of pdCpA-Cys was observed. After 5 minutes, Compound 2n-A was 51%, Compound 2e-A was 0%, and pdCpA was 49%. After 2 hours, deprotection was completed and Compound 2n-A was 0%, but Compound 2e-A was 0% and all hydrolized so that pdCpA was 100% (FIG. 13).
Stability of Compound 2n-A with the SH group of Cys protected was evaluated. Storage samples were prepared under five conditions as shown in the following Table 2 were prepared, respectively, and analyzed by LC-MS.
Stability of Compound 2n-B with the SH group of MeCys protected was also evaluated. Storage samples were prepared under four conditions as shown in the following Table 3 were prepared and analyzed by LC-MS.

[2] = Metabolic stability in mouse hepatic microsome; type: in vitro ADME; settings: male, mouse, liver microsomes, pH 7.4; Table 9, thioether versus sulfoxide; read-out: Mouse Hepatic Microsome CLh, int
Description: The obtained compound was metabolically reacted at a concentration of 2 uM with mouse serum (male/female mixed, Valley Biomedical, USA) (adjusted to pH 7.4 with 33.5 mM HEPES buffer) for two hours. Deproteinization treatment with acetonitrile was provided over time, the amount of the remaining unchanged compound was analyzed using LC/MS, and the metabolic half-life (t1/2) was calculated. A microsome solution prepared at 0.5 mg protein/mL from mouse hepatic microsome and small intestinal microsome (male, XENOTECH, USA) using 100 mM phosphate buffer (pH 7.4) was metabolically reacted with the compound at a concentration of 1 uM for 30 minutes in the presence or absence of NADPH. Deproteinization treatment with acetonitrile was provided over time, the amount of the remaining unchanged compound was analyzed using LC/MS, and the hepatic-intrinsic clearance (CLh, int) and the small intestinal-intrinsic clearance (CLg, int) were calculated (Table 7). Such peptides were sufficiently slowly metabolized by hydrolysis with peptidases or the like in mouse sera and microsomes, contrary to peptides composed of natural amino acids having low lipophilicity.
Metabolic stability tests were carried out in the same manner as shown in 2-1.

[3] = PAMPA (parallel artificial membrane permeability assay); type: in vitro ADME; settings: PAMPA
Method in brief: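 Artificial membrane was 10% (w/v) egg lecithin plus 0.5% (w/v) cholesterol in dodecane on a PVDF filter. A 10 mM DMSO stock was added at 0.5% (v/v) to donor buffer (50 mM MOPSO, pH 6.5, 5.0% glycocholic acid). After 18 h at 37 °C, LC/MS or LC/UV gave donor and acceptor levels for Pe.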

[4] = Metabolic stability in human hepatic microsome; type: in vitro ADME; settings: microsomes
[5] = in vivo; settings: male, C57BL/6J, mouse, 20 mg/kg
[6] = Mouse PK test of peptides (intravenous and oral administration); settings: male, C57BL/6J, in vivo, 20 mg/kg
[7] = membrane permeation rate (Pe), 50 mM MOPSO buffer pH 6.5 with 5.0% glycocholic acid, 37° C., 18 hours, read-out: iPAMPA Pe
[8] = pH 7.4, human hepatic microsome, NADPH(+), read-out: CL NADPH(+)

SMILES | Papp at 18 hours, 50 µM ([3]; pH 6.5) [×10⁻⁶ cm/s] | microsomal CLint at 1 uM ([4]; human, pH 7.4, CL NADPH(+)) [µL/min/mg] | AUC ([5]; iv) [ng·h/mL] | C0 ([5]; iv) [ng/mL] | Vd ([5]; iv) [L/kg] | clearance ([5]; iv) [mL/min/kg] | half-life ([5]; iv) [h] | AUC ([5]; po) [ng·h/mL] | CL/F ([5]; po) [mL/min/kg] | Cmax ([5]; po) [ng/mL] | Tmax ([5]; po) [h] | bioavailability ([5]; po) [%] | half-life ([5]; po) [h] | other results
CC(C)(C)SSC[C@H](N)C(=O)O[C@H]1[C@@H](O)[C@H](n2cnc3c(N)ncnc32)O[C@@H]1COP(=O)(O)O[C@H]1C[C@H](n2ccc(N)nc2=O)O[C@@H]1COP(=O)(O)O [Compound 2n-A, (2R)-(2R,3S,4R,5R)-2-((((((2R,3S,5R)-5-(4-amino-2-oxopyrimidin-1(2H)-yl)-2-((phosphonooxy)methyl)tetrahydrofuran-3-yl)oxy)(hydroxy)phosphoryl)oxy)methyl)-5-(6-amino-9H-purin-9-yl)-4-hydroxytetrahydrofuran-3-yl 2-amino-3-(tert-butyldisulfanyl)propanoate] | – | – | – | – | – | – | – | – | – | – | – | – | – | % by LC-MS during StBu deprotection ([1]; room temperature, after 5 minutes): 51%; % by LC-MS during StBu deprotection ([1]; room temperature, after 2 hours): 0%; % remaining by LC-MS ([1]; In AcONa buffer, 1 mM, pH 5, room temperature, 1 hour): 70%; % remaining by LC-MS ([1]; In DMSO, 5 mM, pH 4, 0° C., 2.5 days): 58%; % remaining by LC-MS ([1]; In HEPES buffer, 1 mM, pH 7, room temperature, 1 hour): 30%; % remaining by LC-MS ([1]; Stored as solid, room temperature, 16 days): 64%
CC[C@H](C)[C@H]1C(=O)N[C@H](C(=O)N2CCCCC2)C[S+]([O-])CC(=O)N(C)[C@@H](Cc2ccccc2)C(=O)N(C)[C@@H](C)C(=O)N(C)[C@@H](Cc2ccccc2)C(=O)N(C)[C@@H](CC(C)C)C(=O)N[C@@H]([C@@H](C)O)C(=O)N(C)CC(=O)N(C)[C@@H](CC(C)C)C(=O)N[C@@H](COC(C)(C)C)C(=O)N1C (stereo partly drawn) [Compound P-116, (5S,8S,11S,14S,17S,23S,26S,29S,32R)-5,11-dibenzyl-26-(tert-butoxymethyl)-29-((S)-sec-butyl)-17-((R)-1-hydroxyethyl)-14,23-diisobutyl-4,7,8,10,13,19,22,28-octamethyl-32-(piperidine-1-carbonyl)-1-thia-4,7,10,13,16,19,22,25,28,31-decaazacyclotritriacontane-3,6,9,12,15,18,21,24,27,30-decone 1-oxide] ([NMeF][NMeA][NMeF][NMeL]T[Sar][NMeL]S(tBu)[NMeI][Cys(O)(CH2CO)]-Piperidide; lactam N-10) | – | – | – | – | – | – | – | – | – | – | – | – | – | microsomal CLint at 1 uM [2]: 56.5 µL/min/mg
CC[C@H](C)[C@H]1C(=O)N[C@H](C(=O)N2CCCCC2)C[S+]([O-])CC(=O)N(C)[C@@H](C)C(=O)N[C@@H](Cc2ccccc2)C(=O)N(C)[C@@H](CC(C)C)C(=O)N[C@@H]([C@@H](C)O)C(=O)N(C)CC(=O)N(C)[C@@H](CC(C)C)C(=O)N[C@@H](COC(C)(C)C)C(=O)N1C (stereo partly drawn) [Compound P-117, (5S,8S,11S,14S,20S,23S,26S,29R)-8-benzyl-23-(tert-butoxymethyl)-26-((S)-sec-butyl)-14-((R)-1-hydroxyethyl)-11,20-diisobutyl-4,5,10,16,19,25-hexamethyl-29-(piperidine-1-carbonyl)-1-thia-4,7,10,13,16,19,22,25,28-nonaazacyclotriacontane-3,6,9,12,15,18,21,24,27-nonone 1-oxide] ([NMeA]F[NMeL]T[Sar][NMeL]S(tBu)[NMeI][Cys(O)(CH2CO)]-Piperidide; lactam N-9) | – | – | – | – | – | – | – | – | – | – | – | – | – | microsomal CLint at 1 uM [2]: 36 µL/min/mg
CC[C@H](C)[C@H]1C(=O)N[C@@H](COC(C)(C)C)C(=O)N(C)[C@@H](Cc2ccccc2)C(=O)N(C)[C@@H](C(C)C)C(=O)N[C@H](C(=O)N2CCCCC2)CC(=O)N(C)[C@@H](C)C(=O)N(C)[C@@H](Cc2ccccc2)C(=O)N[C@@H](CC(C)C)C(=O)N(C)[C@@H](CC(C)C)C(=O)N[C@@H]([C@@H](C)O)C(=O)N(C)CC(=O)N1C [DP-47] ([NMeA][NMeF]L[NMeL]T[Sar][NMeI]S(tBu)[NMeF][NMeV]D-Piperidide; lactam N-11) | 50 | 37 | 202000 | 107000 | 0.381 | 1.66 | 2.68 | 38000 | 8.86 | 4490 | 2.67 | 18.8 | 3.88 | –
CC(C)C[C@H]1C(=O)N2CCC[C@H]2C(=O)N(C)[C@@H](CC(C)C)C(=O)N[C@@H](C)C(=O)N(C)[C@@H](C(C)C)C(=O)N[C@H](C(=O)N2CCCCC2)CC(=O)N(C)[C@@H](C)C(=O)N[C@@H]([C@@H](C)O)C(=O)N(C)CC(=O)N(C)[C@@H](Cc2ccccc2)C(=O)N(C)[C@@H](Cc2ccccc2)C(=O)N1C [DP-67] ([NMeA]T[Sar][NMeF][NMeF][NMeL]P[NMeL]A[NMeV]D-Piperidide; lactam N-11) | 23 | 15 | 70700 | 102000 | 0.431 | 4.74 | 3.25 | 10900 | 37.9 | 2310 | 3.5 | 15.5 | 4.36 | –
CC[C@H](C)[C@H]1C(=O)N[C@@H]([C@@H](C)O)C(=O)N(C)CC(=O)N(C)[C@@H](CC(C)C)C(=O)N[C@H](C(=O)N2CCCCC2)CC(=O)N(C)[C@@H](C)C(=O)N[C@@H](CC(C)C)C(=O)N(C)[C@@H](CC(C)C)C(=O)N(C)[C@@H](Cc2ccccc2)C(=O)N[C@@H](C)C(=O)N(C)[C@@H](Cc2ccccc2)C(=O)N1C [DP-101] ([NMeA]L[NMeL][NMeF]A[NMeF][NMeI]T[Sar][NMeL]D-Piperidide; lactam N-11) | 56 | 101 | 83300 | 112000 | 0.455 | 4.01 | 1.91 | 12700 | 26.2 | 2320 | 1.83 | 15.2 | 2.27 | –
CCCN1CC(=O)N(C)[C@@H](CC(C)C)C(=O)N[C@@H](COC(C)(C)C)C(=O)N(C)[C@@H](CC(C)C)C(=O)N[C@H](C(=O)N2CCCCC2)CC(=O)N[C@H](C)C(=O)N(C)[C@@H](C)C(=O)N(C)[C@@H](Cc2ccccc2)C(=O)N(C)[C@@H](CC(C)C)C(=O)N[C@@H]([C@@H](C)O)C1=O [DP-547] ([dA][NMeA][NMeF][NMeL]T[NPrGly][NMeL]S(tBu)[NMeL]D-Piperidide; lactam N-10) | – | – | – | – | – | – | – | – | – | – | – | – | – | AUC ([6]; iv): 37200 ng·h/mL; C0 ([6]; iv): 44500 ng/mL; Vd ([6]; iv): 0.541 L/kg; clearance ([6]; iv): 8.98 mL/min/kg; half-life ([6]; iv): 1.1 h; AUC ([6]; po): 4510 ng·h/mL; CL/F ([6]; po): 74.6 mL/min/kg; Cmax ([6]; po): 1470 ng/mL; Tmax ([6]; po): 1 h; bioavailability ([6]; po): 12.1%; half-life ([6]; po): 1.84 h; Papp at 18 hours, 50 µM [3, 7]: 34 ×10⁻⁶ cm/s; microsomal CLint at 1 uM [4, 8]: 33 µL/min/mg
CC[C@H](C)[C@H](NC(=O)[C@@H]1CCCN1C(=O)[C@@H]1CC(=O)N[C@@H](C)C(=O)N[C@@H](CC(C)C)C(=O)N(C)[C@@H]([C@@H](C)CC)C(=O)N[C@@H](C(C)C)C(=O)N(C)[C@@H](Cc2ccccc2)C(=O)N[C@@H](CC(C)C)C(=O)N(C)[C@@H](Cc2ccccc2)C(=O)N1)C(=O)N1CCCCC1 [DP-965] (AL[NMeI]V[NMeF]L[NMeF]DPI-Piperidide; lactam N-8) | – | – | – | – | – | – | – | – | – | – | – | – | – | AUC ([6]; iv): 193000 ng·h/mL; C0 ([6]; iv): 171000 ng/mL; Vd ([6]; iv): 0.403 L/kg; clearance ([6]; iv): 1.73 mL/min/kg; half-life ([6]; iv): 2.99 h; AUC ([6]; po): 13700 ng·h/mL; CL/F ([6]; po): 28.9 mL/min/kg; Cmax ([6]; po): 1920 ng/mL; Tmax ([6]; po): 2.67 h; bioavailability ([6]; po): 7.12%; half-life ([6]; po): 2.99 h; Papp at 18 hours, 50 µM [3, 7]: 16 ×10⁻⁶ cm/s; microsomal CLint at 1 uM [4, 8]: 56 µL/min/mg
